# Assays:
# FLK-1 receptor = test: FLK-1 Assay (cellular/catalytic ELISA, VEGF-stimulated phosphotyrosine); format: cell-based; design: concentration or dose not given beside the values
# Protocol: (§1) The cellular/catalytic assays described herein are performed in an ELISA format. The general procedure is as follows: a compound is introduced to cells expressing the test kinase, either naturally or recombinantly, for a selected period of time after which, if the test kinase is a receptor, a ligand known to activate the receptor is added. The cells are lysed and the lysate is transferred to the wells of an ELISA plate previously coated with a specific antibody recognizing the substrate of the enzymatic phosphorylation reaction. Non-substrate components of the cell lysate are washed away and the amount of phosphorylation on the substrate is detected with an antibody specifically recognizing phosphotyrosine compared with control cells that were not contacted with a test compound.
# An ELISA assay is conducted to measure the kinase activity of the FLK-1 receptor and more specifically, the inhibition or activation of TK activity on the FLK-1 receptor. Specifically, the following assay can be conducted to measure kinase activity of the FLK-1 receptor in cells genetically engineered to express Flk-1.
# a. Corning 96-well ELISA plates (Corning Catalog No. 25805-96);
# b. Cappel goat anti-rabbit IgG (catalog no. 55641);
# c. PBS (Gibco Catalog No. 450-1300EB);
# d. TBSW Buffer (50 mM Tris (pH 7.2), 150 mM NaCl and 0.1% Tween-20);
# e. Ethanolamine stock (10% ethanolamine (pH 7.0), stored at 4° C.);
# f. HNTG buffer (20 mM HEPES buffer (pH 7.5), 150 mM NaCl, 0.2% Triton X-100, and 10% glycerol);
# g. EDTA (0.5 M (pH 7.0) as a 100× stock);
# h. Sodium orthovanadate (0.5 M as a 100× stock);
# i. Sodium pyrophosphate (0.2 M as a 100× stock);
# j. NUNC 96 well V bottom polypropylene plates (Applied Scientific Catalog No. AS-72092);
# k. NIH3T3 C7#3 Cells (FLK-1 expressing cells);
# l. DMEM with 1× high glucose L-Glutamine (catalog No. 11965-050);
# n. L-glutamine, Gibco (catalog no. 25030-016);
# o. VEGF, PeproTech, Inc. (catalog no. 100-20)(kept as 1 μg/100 μl stock in Milli-Q dH2O and stored at −20° C.;
# p. Affinity purified anti-FLK-1 antiserum;
# q. UB40 monoclonal antibody specific for phosphotyrosine (see, Fendley, et al., 1990, Cancer Research 50:1550-1558);
# r. EIA grade Goat anti-mouse IgG-POD (BioRad catalog no. 172-1011);
# s. 2,2-azino-bis(3-ethylbenz-thiazoline-6-sulfonic acid (ABTS) solution (100 mM citric acid (anhydrous), 250 mM Na2HPO4 (pH 4.0), 0.5 mg/ml ABTS (Sigma catalog no. A-1888)), solution should be stored in dark at 4° C. until ready for use;
# t. H2O2 (30% solution) (Fisher catalog no. H325);
# u. ABTS/ H2O2 (15 ml ABTS solution, 2 μl H2O2) prepared 5 minutes before use and left at room temperature;
# v. 0.2 M HCl stock in H2O;
# w. dimethylsulfoxide (100%) (Sigma Catalog No. D-8418); and
# y. Trypsin-EDTA (Gibco BRL Catalog No. 25200-049).
# 1. Coat Corning 96-well ELISA plates with 1.0 μg per well Cappel Anti-rabbit IgG antibody in 0.1M Na2CO3 pH 9.6. Bring final volume to 150 μl per well. Coat plates overnight at 4° C. Plates can be kept up to two weeks when stored at 4° C.
# 2. Grow cells in Growth media (DMEM, supplemented with 2.0 mM L-Glutamine, 10% FBS) in suitable culture dishes until confluent at 37° C., 5% CO2.
# 3. Harvest cells by trypsinization and seed in Corning 25850 polystyrene 96-well round bottom cell plates, 25,000 cells/well in 200 μl of growth media.
# 4. Grow cells at least one day at 37° C., 5% CO2.
# 5. Wash cells with D-PBS 1×.
# 6. Add 200 μl/well of starvation media (DMEM, 2.0 mM 1-Glutamine, 0.1% FBS). Incubate overnight at 37° C., 5% CO2.
# 7. Dilute Compounds 1:20 in polypropylene 96 well plates using starvation media. Dilute dimethylsulfoxide 1:20 for use in control wells.
# 8. Remove starvation media from 96 well cell culture plates and add 162 μl of fresh starvation media to each well.
# 9. Add 18 μl of 1:20 diluted compound dilution (from step 7) to each well plus the 1:20 dimethylsulfoxide dilution to the control wells (+/− VEGF), for a final dilution of 1:200 after cell stimulation. Final dimethylsulfoxide is 0.5%. Incubate the plate at 37° C., 5% CO2 for two hours.
# 10. […]
# PDGF-R = PDGF-R Assay (cellular ELISA, U1242 cells); format: cell-based; design: concentration or dose not given beside the values
# Protocol: as §1
# All cell culture media, glutamine, and fetal bovine serum can be purchased from Gibco Life Technologies (Grand Island, N.Y.) unless otherwise specified. All cells are grown in a humid atmosphere of 90-95% air and 5-10% CO2 at 37° C. All cell lines are routinely subcultured twice a week and are negative for mycoplasma as determined by the Mycotect method (Gibco).
# For ELISA assays, cells (U1242, obtained from Joseph Schlessinger, NYU) are grown to 80-90% confluency in growth medium (MEM with 10% FBS, NEAA, 1 mM NaPyr and 2 mM GLN) and seeded in 96-well tissue culture plates in 0.5% serum at 25,000 to 30,000 cells per well. After overnight incubation in 0.5% serum-containing medium, cells are changed to serum-free medium and treated with test compound for 2 hr in a 5% CO2, 37° C. incubator. Cells are then stimulated with ligand for 5-10 minute followed by lysis with HNTG (20 mM Hepes, 150 mM NaCl, 10% glycerol, 5 mM EDTA, 5 mM Na3VO4, 0.2% Triton X-100, and 2 mM NaPyr). Cell lysates (0.5 mg/well in PBS) are transferred to ELISA plates previously coated with receptor-specific antibody and which had been blocked with 5% milk in TBST (50 mM Tris-HCl pH 7.2, 150 mM NaCl and 0.1% Triton X-100) at room temperature for 30 min. Lysates are incubated with shaking for 1 hour at room temperature. The plates are washed with TBST four times and then incubated with polyclonal anti-phosphotyrosine antibody at room temperature for 30 minutes. Excess anti-phosphotyrosine antibody is removed by rinsing the plate with TBST four times. Goat anti-rabbit IgG antibody is added to the ELISA plate for 30 min at room temperature followed by rinsing with TBST four more times. ABTS (100 mM citric acid, 250 mM Na2HPO4 and 0.5 mg/mL 2,2′-azino-bis (3-ethylbenzthiazoline-6-sulfonic acid)) plus H2O2 ([…] 30% H2O2 to 10 ml ABTS) is added to the ELISA plates to start color development. Absorbance at 410 nm with a reference wavelength of 630 nm is recorded about 15 to 30 min after ABTS addition.
SMILES,Flk Kinase % Inhibition (P.110) (FLK-1 receptor) [%],PDGF Kinase % Inhibition (P.119) (PDGF-R) [%]
CSc1ccc(C=C2C(=O)Nc3c(Br)cc(Br)c(C)c32)cc1 [10729/H04],1.1,−5.6
Cc1ccsc1C=C1C(=O)Nc2c(Br)cc(Br)c(C)c21 [10729/H05],22.4,−27.6
Cc1c(Br)cc(Br)c2c1C(=Cc1cccc(Oc3ccccc3)c1)C(=O)N2 [10729/H06],11.0,−12.1
Cc1c(Br)cc(Br)c2c1C(=Cc1ccccn1)C(=O)N2 [10729/H07],9.9,−43.1
Cc1c(Br)cc(Br)c2c1C(=Cc1cccnc1)C(=O)N2 [10729/H08],8.2,−1.5
Cc1c(Br)cc(Br)c2c1C(=Cc1ccncc1)C(=O)N2 [10729/H09],−2.7,0.1
Cc1c(Br)cc(Br)c2c1C(=Cc1ccc(N3CCCC3)cc1)C(=O)N2 [10729/H10],5.3,−1.5
Cc1c(Br)cc(Br)c2c1C(=CC1C=CCCC1)C(=O)N2 (stereo not shown) [10729/H11],8.9,5.0
COc1ccc(C=C2C(=O)Nc3c(Br)cc(Br)c(C)c32)c(OC)c1OC [10730/H02],21.2,1.0
COc1cc(OC)c(OC)cc1C=C1C(=O)Nc2c(Br)cc(Br)c(C)c21 [10730/H03],11.5,−11.7
COc1cc(C=C2C(=O)Nc3c(Br)cc(Br)c(C)c32)cc(OC)c1OC [10730/H04],12.1,−1.2
CC(=O)n1cc(C=C2C(=O)Nc3c(Br)cc(Br)c(C)c32)c2ccccc21 [10730/H05],11.7,22.1
Cc1c(Br)cc(Br)c2c1C(=Cc1ccc(-c3ccccc3Cl)o1)C(=O)N2 [10730/H07],19.0,0.6
Cc1c(Br)cc(Br)c2c1C(=Cc1cc3ccccc3nc1Cl)C(=O)N2 [10730/H08],9.2,6.3
COC1CC(C=C2C(=O)Nc3c(Br)cc(Br)c(C)c32)C(OC)O1 (stereo not shown) [10730/H10],18.3,23.0
Cc1cc(C=C2C(=O)Nc3c(Br)cc(Br)c(C)c32)oc1C [10730/H11],13.9,9.4

SMILES,Flk Kinase % Inhibition (P.110) (FLK-1 receptor) [%],PDGF Kinase % Inhibition (P.119) (PDGF-R) [%]
CCn1c2ccccc2c2cc(C=C3C(=O)Nc4c(Br)cc(Br)c(C)c43)ccc21 [10731/H02],19.7,−18.7
Cc1cc2occ(C=C3C(=O)Nc4c(Br)cc(Br)c(C)c43)c(=O)c2cc1C [10731/H03],20.0,1.8
C=C(C)C1CC=C(C=C2C(=O)Nc3c(Br)cc(Br)c(C)c32)CC1 (stereo not shown) [10731/H04],16.4,−15.8
Cc1c(Br)cc(Br)c2c1C(=Cc1coc3ccc(C(C)C)cc3c1=O)C(=O)N2 [10731/H05],23.6,−1.6
Cc1ccc2occ(C=C3C(=O)Nc4c(Br)cc(Br)c(C)c43)c(=O)c2c1 [10731/H06],28.7,−5.4
Cc1c(Br)cc(Br)c2c1C(=Cc1coc3ccc([N+](=O)[O-])cc3c1=O)C(=O)N2 [10731/H07],74.5,36.5
Cc1c(Br)cc(Br)c2c1C(=Cc1c[nH]c(=O)[nH]c1=O)C(=O)N2 [10731/H08],31.4,−10.1
COc1ccc2[nH]cc(C=C3C(=O)Nc4c(Br)cc(Br)c(C)c43)c2c1 [10731/H09],15.8,−5.4
Cc1c(Br)cc(Br)c2c1C(=C1C(=O)N(C)c3ccccc31)C(=O)N2 [10731/H10],25.9,40.3
Cc1c(Br)cc(Br)c2c1C(=CC(c1cccs1)C(F)(F)F)C(=O)N2 (stereo not shown) [10732/H02],9.1,6.8
COc1c(C(C)C)cc(C=C2C(=O)Nc3c(Br)cc(Br)c(C)c32)cc1C(C)C [10732/H03],8.4,−1.8
Cc1c(Br)cc(Br)c2c1C(=Cc1cc(C(C)C)c(Oc3ccccc3)c(C(C)C)c1)C(=O)N2 [10732/H04],4.9,14.4
COc1ccc(C=C2C(=O)Nc3c(Br)cc(Br)c(C)c32)cc1C(C)(C)C [10732/H05],12.8,−25.6
Cc1c(Br)cc(Br)c2c1C(=Cc1ccc(OCc3ccccc3)c(C(C)(C)C)c1)C(=O)N2 [10732/H06],22.6,−18.0
COc1c(Br)cc(C=C2C(=O)Nc3c(Br)cc(Br)c(C)c32)cc1C(C)(C)C [10732/H07],9.7,−22.0
Cc1c(Br)cc(Br)c2c1C(=Cc1cc(Br)c(OCc3ccccc3)c(C(C)(C)C)c1)C(=O)N2 [10732/H08],12.6,7.8

# From patent publication US20020026053A1, “Novel 3-(substituted) -2- indolinones compounds and use thereof as inhibitors of protein kinase activity” (priority 1997, published 2002)
